Marks after values point to notes of the source that are not given here. Residues, ends and D or L forms follow the SMILES beside them.
Experiments:
Assay type in all cases: in vivo
[1] = tested on: Spodoptera littoralis; assay: Binary choice glass-fiber disc feeding bioassay (Feeding Index); conditions: for Feeding response in words, in combination with glucose: glucose 0.05M; for Feeding response in words, in combination with glucose / Feeding response in words, in combination with sucrose: 100, 1000 and 10,000 ppm; for Feeding Index: n = 15; for Feeding response in words, in combination with sucrose: sucrose 0.05M
Procedure: All experiments were done on the final stage larvae of Spodoptera littoralis. Prior to the experiment, the insects were deprived of food for 2 hours. This has been calculated as a period when most insects would commence feeding. Thus, the food from the previous meal has started to pass into and through the gut. The initial experiment investigated whether the insects could “taste” the plant preparations or extracts and whether they stimulated or deterred feeding. […] A negative value indicates a phagostimulant and a positive value indicates an appetite suppressant. Experiments are usually repeated with between 10-20 insects and the data are analysed using the Wilcoxon matched pairs test. A series of controls were used at the start of the experiment to illustrate the difference in the response of the larvae to sucrose and glucose both tested at 0.05M. Results have been presented as means.

[2] = tested on: larvae of Spodoptera littoralis; assay: Behavioral response of cannulated insects to glucose (latency, meal duration, time to second meal); conditions: glucose treated disc, solvent water
Procedure: Material and methods. Final stage larvae were removed from food and after 2 hours, they were cannulated via the oral cavity with […] of a test solution, with water used as a control. The extracts were tested at 10,000 ppm, 1,000 ppm and 100 ppm. The insects were then placed in a Petri dish with a glucose treated glass-fiber disc. The time taken for the insects to start a meal (latency), the duration of a meal (meal duration) and the time taken to take the second meal were recorded. This provides information about whether the extracts once consumed would delay feeding, whether the extracts would alter the duration of a meal once it had started, and whether the time to the second meal would be altered. […] The time to the start of a meal was extended, when compared with the water control, after cannulation with Aloe and Ginseng. Aloe acted as stimulants in the glass-fiber disc bioassays, whereas Ginseng was a potent suppressant. Thus, the Ginseng could be having a negative activity on time to feed, whereas the response to Aloe could be because of a “positive” response. The end effect is the same in that both groups caused an increase in the latency to feed. […] None of the extracts influenced the duration of the first recorded meal.

[3] = tested on: medial sensilla of Spodoptera littoralis larvae; assay: Electrophysiology: neural response of the medial sensilla after cannulation; conditions: for Impulses per second from the medial styloconic sensilla, stimulus C: stimulus KCl (0.05M); for Impulses per second from the medial styloconic sensilla, stimulus P: stimulus amino acid mixture; for Impulses per second from the medial styloconic sensilla, stimulus G: stimulus glucose (0.05M); for Impulses per second from the medial styloconic sensilla, stimulus S: stimulus sucrose (0.05M)
From the text: Insects use sensilla on their mouthparts to taste their food. These sensilla contain neurones that respond to compounds in their food. An electrophysiological bioassay has been developed to record the neural impulses from the four neurones in each sensilla. […] Previous experiments have shown that the responsiveness of the insects can be influenced by the diet an insect has been reared on and previous exposure to a compound. The physiological condition of the insect can also influence the responsiveness of these neurones. In these experiments, we […] classify the neurones down to specific neurones but this requires some further experiments not undertaken in this study. […] Each larva was tested with KCl (C=0.05M) as a control, sucrose (S=0.05M), glucose (G=0.05M) and amino acid mix (P=0.05M). A set of experiments were undertaken on a control non-cannulated group of insects. […] Prior to the experiment, the insects had been standardized as in the behavioral experiments.

[4] = in combination with glucose 0.05M, extract 100 ppm
[5] = in combination with glucose 0.05M, extract 1,000 ppm
[6] = in combination with glucose 0.05M, extract 10,000 ppm
[7] = in combination with sucrose 0.05M, extract 100 ppm
[8] = in combination with sucrose 0.05M, extract 1,000 ppm
[9] = in combination with sucrose 0.05M, extract 10,000 ppm
[10] = 30 min after cannulation at 1000 ppm
[11] = 1 h after cannulation at 1000 ppm

Compound | Feeding response in words, in combination with glucose [1] | Feeding Index [1, 4] | Feeding Index [1, 5] | Feeding Index [1, 6] | Feeding Index [1, 7] | Feeding Index [1, 8] | Feeding Index [1, 9] | Feeding response in words, in combination with sucrose [1] | Latency ([2]; concentration 0.1k (100 ppm)) | Meal duration ([2]; concentration 0.1k (100 ppm)) | Time to 2nd meal ([2]; concentration 0.1k (100 ppm)) | Latency ([2]; concentration 1k (1,000 ppm)) | Meal duration ([2]; concentration 1k (1,000 ppm)) | Time to 2nd meal ([2]; concentration 1k (1,000 ppm)) | Latency ([2]; concentration 10k (10,000 ppm)) | Meal duration ([2]; concentration 10k (10,000 ppm)) | Time to 2nd meal ([2]; concentration 10k (10,000 ppm)) | Impulses per second from the medial styloconic sensilla, stimulus C [3, 10] | Impulses per second from the medial styloconic sensilla, stimulus P [3, 10] | Impulses per second from the medial styloconic sensilla, stimulus G [3, 10] | further results
COC(=O)[C@H](Cc1ccccc1)NC(=O)[C@@H](N)CC(=O)O [Aspartame] (H-Asp-Phe-OMe) | stimulated feeding at lower concentrations | −25* % | −31* % | −24% | −15% | 14% | 15% | not significant | 21 min | 17 min | 15 min | 24 min | 12 min | 15 min | 20 min | 12 min | 17 min | 10 impulses per second | 24 impulses per second | 45 impulses per second | Impulses per second from the medial styloconic sensilla, stimulus S [3, 10]: 57 impulses per second; Impulses per second from the medial styloconic sensilla, stimulus C [3, 11]: 12 impulses per second; Impulses per second from the medial styloconic sensilla, stimulus P [3, 11]: 24 impulses per second; Impulses per second from the medial styloconic sensilla, stimulus G [3, 11]: 25 impulses per second; Impulses per second from the medial styloconic sensilla, stimulus S [3, 11]: 48 impulses per second
OC[C@H]1O[C@@](CO)(O[C@H]2O[C@H](CO)[C@@H](O)[C@H](O)[C@H]2O)[C@@H](O)[C@@H]1O [Sucrose] |  |  |  |  |  |  |  |  |  |  |  |  |  |  |  |  |  |  |  |  | Feeding Index ([1]; control disc sucrose 0.05M versus treatment disc sucrose 0.05M, 18 hours): 10.7%; Feeding Index ([1]; control disc sucrose 0.05M versus untreated treatment disc, 18 hours): 46.3* %; Phagostimulant potency in words ([1]; sucrose versus glucose, both 0.05M): more potent phagostimulant to S. littoralis than glucose
O=C1NS(=O)(=O)c2ccccc21 [Saccharin] | stimulated feeding at lower concentrations | −24* % | −25* % | −18% | −16% | −5% | 5% | not significant | 24 min | 16 min | 11 min | 24 min | 14 min | 18 min | 25 min | 14 min | 18 min | 9 impulses per second | 29 impulses per second | 45 impulses per second | Impulses per second from the medial styloconic sensilla, stimulus S [3, 10]: 65 impulses per second; Impulses per second from the medial styloconic sensilla, stimulus C [3, 11]: 15 impulses per second; Impulses per second from the medial styloconic sensilla, stimulus P [3, 11]: 47 impulses per second; Impulses per second from the medial styloconic sensilla, stimulus G [3, 11]: 28 impulses per second; Impulses per second from the medial styloconic sensilla, stimulus S [3, 11]: 48 impulses per second

From patent US20080220101A1, “COMPOSITIONS OF EXTRACTS OF ALOE FOR ORAL ADMINISTRATION” (priority 2007, published 2008)
